Values joined by “and” are separate entries in the source; they are usually repeats but may differ in a detail not shown here. Equal values may be shown once. Toxic doses and inconclusive results are not listed. Rule as the data show it: active = T/C of 150% or more; inactive = T/C below 125%.
System: L1210 leukemia ip in BDF1 mice, survival T/C
Test: NCI In Vivo Anticancer Drug Screen. Data for tumor model L1210 Leukemia (intraperitoneal) in B6D2F1 (BDF1) mice
Settings: endpoint: mean survival time, higher = longer survival
Outline: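 Ratio derived from survival: compound-dosed mice over vehicle-dosed mice, all bearing a transplantable tumor.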

[1] = dose: 25.0 mg/kg/injection, schedule: Q01DX009 (ip), vehicle: saline with Tween-80
[2] = dose: 50.0 mg/kg/injection, schedule: Q01DX009 (ip), vehicle: saline with Tween-80
[3] = dose: 1.56 mg/kg/injection, schedule: Q01DX009 (ip), vehicle: saline
[4] = dose: 100.0 mg/kg/injection, schedule: Q01DX001 (ip), vehicle: saline
[5] = dose: 200.0 mg/kg/injection, schedule: Q01DX001 (ip), vehicle: saline
[6] = dose: 400.0 mg/kg/injection, schedule: Q01DX001 (ip), vehicle: saline
[7] = dose: 25.0 mg/kg/injection, schedule: Q04DX003 (ip), vehicle: saline
[8] = dose: 100.0 mg/kg/injection, schedule: Q01DX009 (ip), vehicle: Klucel (hydroxypropylcellulose) (HPC)
[9] = dose: 200.0 mg/kg/injection, schedule: Q01DX009 (ip), vehicle: Klucel (hydroxypropylcellulose) (HPC)
[10] = dose: 400.0 mg/kg/injection, schedule: Q01DX009 (ip), vehicle: Klucel (hydroxypropylcellulose) (HPC)
[11] = dose: 100.0 mg/kg/injection, schedule: Q04DX003 (ip), vehicle: Klucel (hydroxypropylcellulose) (HPC)
[12] = dose: 200.0 mg/kg/injection, schedule: Q04DX003 (ip), vehicle: Klucel (hydroxypropylcellulose) (HPC)
[13] = dose: 400.0 mg/kg/injection, schedule: Q04DX003 (ip), vehicle: Klucel (hydroxypropylcellulose) (HPC)
[14] = dose: 100.0 mg/kg/injection, schedule: Q04DX003 (ip), vehicle: saline
[15] = dose: 200.0 mg/kg/injection, schedule: Q04DX003 (ip), vehicle: saline

Measured: T/C

CCC(=O)c1ccc2c(c1)N(CCCN(C)C)c1ccccc1S2
inactive: dose: 6.25 mg/kg/injection, schedule: Q01DX009 (ip), vehicle: saline with Tween-80 98 % of control | dose: 12.5 mg/kg/injection, schedule: Q01DX009 (ip), vehicle: saline with Tween-80 96 % of control | [1] 115 % of control | [2] 107 % of control

CN1CCC(c2ccccc2)(c2ccccc2)OC1
inactive: dose: 100.0 mg/kg/injection, schedule: Q04DX003 (ip), vehicle: saline with Tween-80 94 % of control

Cc1cccc(NC(=O)Nc2ccc(Cl)cc2)c1C
inactive: dose: 100.0 mg/kg/injection, schedule: Q01DX009 (ip), vehicle: gum acacia 100 % of control | dose: 100.0 mg/kg/injection, schedule: Q04DX003 (ip), vehicle: gum acacia 95 % of control | dose: 200.0 mg/kg/injection, schedule: Q01DX009 (ip), vehicle: gum acacia 100 % of control | dose: 200.0 mg/kg/injection, schedule: Q04DX003 (ip), vehicle: gum acacia 95 % of control | dose: 400.0 mg/kg/injection, schedule: Q01DX009 (ip), vehicle: gum acacia 92 % of control | dose: 400.0 mg/kg/injection, schedule: Q04DX003 (ip), vehicle: gum acacia 97 % of control

CC1CN1c1nc(N2CC2C)nc(N2CC2C)n1 (stereo not drawn)
inactive: [3] 97 % of control | dose: 3.13 mg/kg/injection, schedule: Q01DX009 (ip), vehicle: saline 95 % of control | dose: 5.0 mg/kg/injection, schedule: Q01DX001 (ip), vehicle: saline 100 % of control | dose: 6.25 mg/kg/injection, schedule: Q01DX009 (ip), vehicle: saline 92 % of control | dose: 10.0 mg/kg/injection, schedule: Q01DX001 (ip), vehicle: saline 109 % of control | dose: 12.5 mg/kg/injection, schedule: Q01DX009 (ip), vehicle: saline 87 % of control | dose: 20.0 mg/kg/injection, schedule: Q01DX001 (ip), vehicle: saline 109 % of control

COC(=O)C1CCC(N)CC1 (stereo not drawn)
inactive: [4] 106 % of control and 105 % of control | [5] 104 % of control and 94 % of control | [6] 108 % of control and 96 % of control

Oc1cccc(NC(=S)Nc2ccccc2)c1
inactive: dose: 50.0 mg/kg/injection, schedule: Q01DX001 (ip), vehicle: saline 100 % of control | [4] 94 % of control | [5] 97 % of control | [6] 97 % of control

C/C=C/C(=O)OCCC[N+](C)(C)C
inactive: dose: 0.78 mg/kg/injection, schedule: Q01DX009 (ip), vehicle: saline 95 % of control | [3] 97 % of control | dose: 3.12 mg/kg/injection, schedule: Q01DX009 (ip), vehicle: saline 100 % of control | dose: 6.25 mg/kg/injection, schedule: Q04DX003 (ip), vehicle: saline 111 % of control | dose: 12.5 mg/kg/injection, schedule: Q04DX003 (ip), vehicle: saline 88 % of control | [7] 103 % of control

Cc1ccc(NC(=S)N(C)C)cc1C
inactive: [8] 95 % of control | [9] 101 % of control | [10] 104 % of control

COc1c([N+](=O)[O-])cc2c(c1C)OCOC2
inactive: dose: 12.5 mg/kg/injection, schedule: Q01DX009 (ip), vehicle: Klucel (hydroxypropylcellulose) (HPC) 95 % of control | dose: 25.0 mg/kg/injection, schedule: Q01DX009 (ip), vehicle: Klucel (hydroxypropylcellulose) (HPC) 95 % of control | dose: 50.0 mg/kg/injection, schedule: Q01DX009 (ip), vehicle: Klucel (hydroxypropylcellulose) (HPC) 95 % of control | dose: 100.0 mg/kg/injection, schedule: Q01DX001 (ip), vehicle: Klucel (hydroxypropylcellulose) (HPC) 92 % of control | dose: 200.0 mg/kg/injection, schedule: Q01DX001 (ip), vehicle: Klucel (hydroxypropylcellulose) (HPC) 93 % of control | dose: 400.0 mg/kg/injection, schedule: Q01DX001 (ip), vehicle: Klucel (hydroxypropylcellulose) (HPC) 102 % of control

COc1cc(C)c(C)cc1/C(C)=C(/C)C(=O)O (tested in a mixture with another compound)
inactive: dose: 100.0 mg/kg/injection, schedule: Q01DX001 (ip), vehicle: saline with Tween-80 100 % of control | dose: 200.0 mg/kg/injection, schedule: Q01DX001 (ip), vehicle: saline with Tween-80 100 % of control | dose: 400.0 mg/kg/injection, schedule: Q01DX001 (ip), vehicle: saline with Tween-80 103 % of control

O=[N+]([O-])c1ccc(Oc2ccc(Br)cc2)cc1
inactive: [11] 104 % of control | [12] 104 % of control | [13] 93 % of control

Cc1cc(Cl)c(OCC(=O)O)c(Cl)c1
inactive: [4] 92 % of control | [5] 92 % of control | [6] 94 % of control

CC(=O)OCCC#N
inactive: dose: 50.0 mg/kg/injection, schedule: Q01DX001 (ip), vehicle: carboxymethylcellulose (CMC) 95 % of control | dose: 100.0 mg/kg/injection, schedule: Q01DX001 (ip), vehicle: carboxymethylcellulose (CMC) 95 % of control | dose: 200.0 mg/kg/injection, schedule: Q01DX001 (ip), vehicle: carboxymethylcellulose (CMC) 106 % of control | dose: 400.0 mg/kg/injection, schedule: Q01DX001 (ip), vehicle: carboxymethylcellulose (CMC) 95 % of control

Brc1nc(-c2ccccc2)c(-c2ccccc2)nc1Br
inactive: [4] 96 % of control | [5] 88 % of control | [6] 88 % of control

O=C(Cc1ccccc1)Nc1ccc[n+](Cc2ccc(S(=O)(=O)F)cc2)c1
inactive: [14] 108 % of control and 122 % of control | [15] 113 % of control and 114 % of control

CC1(C)Cc2cc3ccccc3nc2-c2ccccc21
inactive: [1] 97 % of control | [2] 97 % of control | dose: 100.0 mg/kg/injection, schedule: Q01DX009 (ip), vehicle: saline with Tween-80 94 % of control

COc1ccccc1NC(=O)NCCCCCCNC(=O)Nc1ccccc1OC
inactive: [8] 89 % of control | [9] 92 % of control | [10] 94 % of control

N#CC(c1ccccc1)c1ccccc1
inactive: dose: 100.0 mg/kg/injection, schedule: Q01DX001 (ip), vehicle: other 97 % of control | dose: 200.0 mg/kg/injection, schedule: Q01DX001 (ip), vehicle: other 90 % of control | dose: 400.0 mg/kg/injection, schedule: Q01DX001 (ip), vehicle: other 95 % of control

CC(C)(N)COC(=O)c1ccccc1C(=O)O
inactive: [4] 91 % of control | [5] 96 % of control | [6] 94 % of control

Cc1cc(=O)[nH]c2ccc(Cc3ccc(Cl)cc3)cc12
inactive: [4] 97 % of control | [5] 98 % of control | [6] 95 % of control

ICC12CC=CCC1(CI)CCCC2 (stereo not drawn)
inactive: dose: 150.0 mg/kg/injection, schedule: Q04DX002 (ip), vehicle: Klucel (hydroxypropylcellulose) (HPC) 105 % of control | dose: 300.0 mg/kg/injection, schedule: Q04DX002 (ip), vehicle: Klucel (hydroxypropylcellulose) (HPC) 97 % of control

CCN(CC)C(=O)c1ccc(C(Cl)(Cl)Cl)cc1
inactive: dose: 75.0 mg/kg/injection, schedule: Q01DX009 (ip), vehicle: saline sonified 91 % of control | [11] 87 % of control | dose: 150.0 mg/kg/injection, schedule: Q01DX009 (ip), vehicle: saline sonified 91 % of control | [12] 89 % of control | dose: 300.0 mg/kg/injection, schedule: Q01DX009 (ip), vehicle: saline sonified 87 % of control | [13] 91 % of control

CCOC(=O)CN(c1c(C)cc(C)c(N(CC(=O)OCC)S(=O)(=O)c2ccccc2)c1C)S(=O)(=O)c1ccccc1
inactive: [14] 93 % of control | [15] 101 % of control | dose: 400.0 mg/kg/injection, schedule: Q04DX003 (ip), vehicle: saline 93 % of control

CC(C)OCc1c(N)nc(=S)[nH]c1C(=O)O
inactive: dose: 12.0 mg/kg/injection, schedule: Q01DX009 (ip), vehicle: saline 90 % of control | dose: 25.0 mg/kg/injection, schedule: Q01DX009 (ip), vehicle: saline 97 % of control | [7] 106 % of control | dose: 50.0 mg/kg/injection, schedule: Q01DX009 (ip), vehicle: saline 103 % of control and 92 % of control | dose: 50.0 mg/kg/injection, schedule: Q04DX003 (ip), vehicle: saline 97 % of control | [14] 102 % of control and 90 % of control

CC1NC(=O)OC1(C)C(C)(C)C (stereo not drawn)
inactive: dose: 5.0 mg/kg/injection, schedule: Q04DX003 (ip), vehicle: saline with Tween-80 97 % of control | dose: 10.0 mg/kg/injection, schedule: Q04DX003 (ip), vehicle: saline with Tween-80 100 % of control | dose: 20.0 mg/kg/injection, schedule: Q04DX003 (ip), vehicle: saline with Tween-80 96 % of control

Source: PubChem BioAssay AID248 (DTP/NCI, 2004)
